Patent US20260306460A1, “COMPOSITION FOR REMOVING AND INHIBITING SENESCENT CELLS, AND USES THEREOF” (LIFECEUTIX CO., LTD., priority 2023, published 2026)

Experiments:
[1] = tested on: naturally aged C57BL6J mice; experiment: p16 mRNA in organs of naturally aged mice, Example 21-2, Table 18; format: in vivo, mouse; settings: 22-month-old naturally aged mice, untreated aged = 100%
Description: 22-month-old female C57BL6J mice (KRIBB Laboratory Animal Resource Center) were acclimated to the experimental environment for one week, after which the aged mice were randomly assigned to experimental and control groups. Eight-week-old, non-aged mice served as controls. LX-403 was mixed in a 10% ethanol solution of PEG400 and administered orally at a concentration of 25 mg/kg daily for 21 days, or administered to the skin, joints, or eyes at a concentration of 1 μM. LX-1801 was mixed in distilled water with 4% DMSO, 30% PEG300, and 5% Tween80 and administered to the skin, joints, or eyes at a concentration of 0.4 μM daily for 21 days. LX-2001 was mixed in PBS and administered to the skin, joints, or eyes at a concentration of […] daily for 21 days. LX-2002 was mixed in distilled water with 4% DMSO, 30% PEG300, and 5% Tween80 and administered to the skin, joints, or eyes at a concentration of 2 μM daily for 21 days. […] LX-2005 was mixed in distilled water with 4% DMSO, 30% PEG300, and 5% Tween80 and administered to the skin, joints, or eyes at a concentration of 90 μM daily for 21 days. LX-2007 was mixed in distilled water with 4% DMSO, 30% PEG300, and 5% Tween80 and administered to the skin, joints, or eyes at a concentration of 90 μM daily for 21 days. […] LX-3002 was mixed in distilled water with 4% DMSO, 30% PEG300, and 5% Tween80 and administered orally at a concentration of 10 mg/kg daily for 21 days. […] LX-5411 was mixed in 5% PBS and administered orally at a concentration of 10 mg/kg daily for 21 days or administered to the skin, joints, or eyes at a concentration of 3 μM. LX-5701 was mixed in PBS and administered orally at a concentration of 360 mg/kg daily for 21 days. LX-6807 was mixed in saline and administered intraperitoneally at a concentration of 1 mg/kg daily for 21 days. LX-2101 or LX-2102 was mixed in PBS solution with 5% DMSO and administered intraperitoneally at a concentration of 20 mg/kg or 10 mg/kg, respectively, daily for 21 days. The control group received only the solution in the same volume. After the end of drug administration, the methods described in each example below were performed.
Mice were sacrificed, and RNA was extracted from each organ tissue using the same method as in Example 7-2 of WO2023-085787 A1. qRT-PCR was performed with the synthesized cDNA. […] The amount of p16 mRNA after aging was calculated as 100% and compared with the amount of p16 mRNA after test compound treatment.

naturally aged mice = experiment: Anti-aging evaluation in naturally aged mice, Example 31, Table 55; format: in vivo, mouse; settings: for Femur Ctsk mRNA / Kidney Agtr1a mRNA / Liver IL6 mRNA / Liver MMP3 mRNA / Liver p16 mRNA / Open Field Test Time in Center: untreated = 100%; for Heart Sur2a mRNA / Joint Col2a1 mRNA / Skin Col1a1 mRNA / Skin SDF1 mRNA: untreated = 1.0; for Muscle Mass: untreated 0.64 g; for Fat Mass: untreated 0.82 g; for Cataract incidence: untreated 83%;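 on all read-outs here: Vehicle-dosed control mice received solution alone at matching volume, values compare test-compound-treated aged mice against that control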
Description: After the end of drug administration, the method described in each example below was performed. […] The mRNA amounts of p16, MMP3, and IL6 after natural aging was induced were calculated as 100% and compared with the mRNA amounts of p16, MMP3, and IL6 after treatment with the test compound. In addition, an open field test for the analysis of aging-related frailty, agtr1a mRNA analysis for kidney damage and disease evaluation, col1a1 and SDF1 mRNA analysis for skin aging evaluation such as wrinkles/loss of elasticity/hyperpigmentation, col2a1 mRNA analysis for evaluating joint aging such as osteoarthritis, sur2a mRNA analysis for evaluating cardiac aging such as decreased cardiac load resistance, ctsk mRNA analysis for evaluating bone diseases due to aging such as osteoporosis, muscle tissue weight for analyzing sarcopenia, fat tissue weight for analyzing lipoatrophy, and cataract incidence analysis were performed in mice. For cataract incidence analysis, the drug was administered twice a week under the conditions specified above, and biweekly examinations were conducted until death.

Compound | Femur Ctsk mRNA (naturally aged mice) [%] | Heart Sur2a mRNA (naturally aged mice) [fold] | Joint Col2a1 mRNA (naturally aged mice) [fold] | Kidney Agtr1a mRNA (naturally aged mice) [%] | Liver IL6 mRNA (naturally aged mice) [%] | Liver MMP3 mRNA (naturally aged mice) [%] | Liver p16 mRNA (naturally aged mice) [%] | Open Field Test Time in Center (naturally aged mice) [%] | Skin Col1a1 mRNA (naturally aged mice) [Fold] | Skin SDF1 mRNA (naturally aged mice) [fold] | Muscle Mass (naturally aged mice) [g] | Fat Mass (naturally aged mice) [g] | Cataract incidence (naturally aged mice) [%] | other results
CC1(C)CC[C@]2(NC(=O)C(C)(F)F)CC[C@]3(C)[C@H](C(=O)C=C4[C@@]5(C)C=C(C#N)C(=O)C(C)(C)[C@@H]5CC[C@]43C)[C@@H]2C1 [LX-2101, Omaveloxolone] |  |  |  |  |  |  |  |  |  |  |  |  |  | p16 mRNA (%), Brain [1]: 62%; p16 mRNA (%), Eye [1]: 62%; p16 mRNA (%), Femur [1]: 61%; p16 mRNA (%), Heart [1]: 78%; p16 mRNA (%), Kidney [1]: 46%; p16 mRNA (%), Knee joint [1]: 75%; p16 mRNA (%), Liver [1]: 62%; p16 mRNA (%), Lung [1]: 54%; p16 mRNA (%), Muscle [1]: 82%; p16 mRNA (%), Skin [1]: 80%; p16 mRNA (%), eWAT [1]: 42%
C[C@@H]1CC[C@@]23C[C@H](O)C(=O)[C@@]2(O)[C@]1(C)[C@H](OC(=O)CCl)C[C@@H](C1=CCn2c(=O)n(-c4ccccc4)c(=O)n2C1)[C@@H]3C [LX-1801, (2S,3aS,4S,5R,7R,8S,8aS,11R)-7-(1,3-Dioxo-2-phenyl-2,3,5,8-tetrahydro-1H-[1,2,4]triazolo[1,2-a]pyridazin-6-yl)-2,3a-dihydroxy-4,8,11-trimethyl-3-oxooctahydro-1H-4,8a-propanoazulen-5-yl 2-Chloroacetate] | 69 | 2.7 | 2.6 | 48 | 53 | 49 | 42 | 287 | 1.9 | 2.2 | 0.78 | 1.16 | 35 | 
C#CC(=O)N1[C@@H](CCCC)Cc2cc(OC)ccc2[C@@H]1c1ccc(NC23CC4CC(CC(C4)C2)C3)cc1 [LX-5411] | 71 | 2.5 | 2.0 | 68 | 63 | 58 | 65 | 214 | 1.6 | 1.9 | 0.74 | 1.21 | 52 | 
COC(=O)[C@H]1Cc2c([nH]c3ccccc23)[C@H](c2ccc(S(C)(=O)=O)cc2)N1C(=O)CCl [LX-5401, methyl (1S,3R)-2-(2-chloroacetyl)-1-(4-(methylsulfonyl)phenyl)-2,3,4,9-tetrahydro-1H-pyrido[3,4-b]indole-3-carboxylate] | 42 | 1.7 | 1.6 | 73 | 55 | 81 | 73 | 179 |  |  | 0.69 | 0.89 | 77 | 
O=C(C(C[N+](=O)[O-])=NO)N1CCN(C(c2ccc(Cl)cc2)c2ccc(Cl)cc2)CC1 [LX-403] | 22 | 2.9 | 3.4 | 64 | 53 | 45 | 34 | 237 | 2.8 | 2.7 | 0.76 | 0.98 | 64 | 
S=C(N/N=C1\CCCc2cccnc21)N1CCN(c2ccccn2)CC1 [LX-801] | 70 | 2.8 | 2.7 | 55 | 64 | 35 | 53 | 222 | 2.1 | 2.1 | 0.77 | 1.09 | 57 | 
COC(=O)[C@]12CCC(C)(C)C[C@H]1[C@H]1C(=O)C=C3[C@@]4(C)C=C(C#N)C(=O)C(C)(C)[C@@H]4CC[C@@]3(C)[C@]1(C)CC2 [LX-2102, Bardoxolone methyl] |  |  |  |  |  |  |  |  |  |  |  |  |  | p16 mRNA (%), Brain [1]: 85%; p16 mRNA (%), Eye [1]: 72%; p16 mRNA (%), Femur [1]: 64%; p16 mRNA (%), Heart [1]: 81%; p16 mRNA (%), Kidney [1]: 53%; p16 mRNA (%), Knee joint [1]: 64%; p16 mRNA (%), Liver [1]: 58%; p16 mRNA (%), Lung [1]: 71%; p16 mRNA (%), Muscle [1]: 75%; p16 mRNA (%), Skin [1]: 77%; p16 mRNA (%), eWAT [1]: 39%
